The source of these data is US20080038357A1, “Inhalation Powder Containing the CGRP antagonist BIBN4096 and Process for the Preparation Thereof” (priority 2002, published 2008).

Molecules are shown by their SMILES.

Usually bioavailability stands for dose-corrected exposure relative to a reference, in per cent. A lower bioavailability goes with little systemic uptake.

A short description of data set [1]: Bioavailability after administration by inhalation. The following applies: in vivo, inhaled or intranasal; administered by inhalation as spherically nanostructured microparticles; based on the fine fraction of the formulation (FPD, USP 24 Suppl. 2000).
A short description of data set [2]: Stability of the amorphous state of the microparticles. The data set is classed as physicochemical. The following applies: normal conditions (T<50° C., relative humidity <75%).
The conditions of data set [3]: conventional preparations; cited from earlier work.

On to `NCCCC[C@H](NC(=O)[C@@H](Cc1cc(Br)c(O)c(Br)c1)NC(=O)N1CCC(N2Cc3ccccc3NC2=O)CC1)C(=O)N1CCN(c2ccncc2)CC1` [BIBN4096, 1-[N^2-[3,5-dibromo-N-[[4-(3,4-dihydro-2(1H)-oxoquinazolin-3-yl)-1-piperidinyl]carbonyl]-D-tyrosyl]-L-lysyl]-4-(4-pyridinyl)-piperazine], for which the bioavailability in data set [1] is around 60%. Further, the “stability of amorphous state” value in data set [2] was “stable in their amorphous state”. In data set [3], the “bioavailability by oral route” value is recorded as “only limited bioavailability by oral route”.
